Experimental data as given in PMC4774972, “Activity and Predicted Nephrotoxicity of Synthetic Antibiotics Based on Polymyxin B” (Journal of Medicinal Chemistry, 2016).
Values after ≈ are worked out from the molar mass of the structure shown. Read-outs that look alike come from different tables or passages of the source. Numbered stars: 1 amine (or outer) side, 2 acyl side, 3 side chain; on linkers, the order of the positions; unused ones are H or OH. Bridge positions count the residues as written; N and C are the ends. Square brackets hold non-standard residues; d marks the D form. Peptide text beside a SMILES is read from it. * marks the point of attachment. Phe(4-NH2) = Nc1ccc(C[C@H](N)C(=O)O)cc1; X1 = c1ccc(-c2ccc(N*)cc2)cc1; dDab = NCC[C@@H](N)C(=O)O; Octanoyl = CCCCCCCC(=O)*; Dab = NCC[C@H](N)C(=O)O; CO = O=C([*:1])[*:2]

Key:
[1] = system: K. pneumoniae ATCC 13883; details: MIC K. pneumoniae ATCC 13883 (µg/mL)
[2] = system: P. aeruginosa PA9704, PmxR; details: MIC P. aeruginosa PA9704, PmxR (µg/mL)
[3] = system: K. pneumoniae CI Koprana 100650661:1, PmxR; details: MIC K. pneumoniae CI Koprana 100650661:1, PmxR (µg/mL)
[4] = system: P. aeruginosa FADDI-PA070, PmxR; details: MIC P. aeruginosa FADDI-PA070, PmxR (µg/mL)
[5] = system: K. pneumoniae CI 138-16357-20362, PmxR; details: MIC K. pneumoniae CI 138-16357-20362, PmxR (µg/mL)
[6] = system: S. aureus ATCC 25923, MSSA; details: MIC S. aureus ATCC 25923, MSSA (µg/mL)
[7] = system: A. baumannii CI Ptyela 100734512:2, PmxR; details: MIC A. baumannii CI Ptyela 100734512:2, PmxR (µg/mL)
[8] = system: HepG2; details: CC50 HepG2 (µM)
[9] = system: K. pneumoniae CI Koprana 100650661:1, PmxR; assay: microbe, parasite or virus in culture; assay type: cell-based, Klebsiella pneumoniae; details: carbapenem & polymyxin resistant clinical isolate; MHB, 5 × 10^5 CFU/mL, 18 h at 37 °C
Protocol: (§1) Bacteria were either obtained from American Type Culture Collection (ATCC; Manassas, VA, USA) or independent academic clinical isolate collections, as listed in Table S2. Bacteria were cultured in nutrient broth (NB; Bacto Laboratories, catalog no. 234000) or Muller Hinton broth (MHB; Bacto Laboratories, catalog no. 211443) at 37 °C overnight with shaking (∼180 rpm). A sample of each culture was then diluted 50-fold in fresh MHB and incubated at 37 °C for 1.5–3 h with shaking (∼180 rpm). Compound stock solutions were prepared as 0.64 or 2.56 mg/mL in water. The compounds, at twice the final desired concentration, were serially diluted 2-fold across the wells of 96-well plates (Polystyrene, Corning, catalogue No. 3370). Mid log phase bacterial cultures (after 1.5–3 h incubation) were diluted to a final concentration of 5 × 10^5 colony forming units (CFU)/mL, and 50 μL was added to each well giving a final compound concentration range of 32 μg/mL to 0.015 μg/mL (128–0.06 μg/mL for colistin and polymyxin B against the polymyxin resistant clinical isolates). MICs were determined visually after 18 h of incubation at 37 °C, with the MIC defined as the lowest compound concentration at which no bacterial growth was visible.
(§2) Table S2. Bacterial strains used for Minimum Inhibitory Concentration (MIC) […]
(§3) Organism Strain Strain description Strain Source
(§4) Escherichia coli ATCC 25922 FDA strain Seattle 1946 ATCC
(§5) Klebsiella pneumoniae ATCC 13883 Control strain ATCC
(§6) Klebsiella pneumoniae ATCC 700603 Multi-drug resistant ATCC
(§7) Klebsiella pneumoniae BAA-2146 Metallo-beta-lactamase- ATCC
(§8) Acinetobacter baumannii ATCC 19606 Type strain ATCC
(§9) Pseudomonas aeruginosa ATCC 27853 Type strain ATCC
(§10) Pseudomonas aeruginosa FADDI-PA070 Clinical isolate, Nation and Li labs, polymyxin resistant Monash University
(§11) Clinical isolate, Wang Hengzhuang, Pseudomonas aeruginosa PA9704 polymyxin resistant University Hospital of […]
(§12) Ptyela Clinical isolate, Ilias Karaiskos and Acinetobacter baumannii Carbapenem & Helen Giamarellou
(§13) Clinical isolate, Medicine, Hygeia
(§14) Klebsiella pneumoniae Koprana Carbapenem, & General Hospital, […]
(§15) Clinical isolate, (Instituto Dante […]
(§16) polymyxin resistant Cardiologia, São […]

[10] = system: K. pneumoniae CI 138-16357-20362, PmxR; assay: microbe, parasite or virus in culture; assay type: cell-based, Klebsiella pneumoniae; details: carbapenem & polymyxin resistant clinical isolate; MHB, 5 × 10^5 CFU/mL, 18 h at 37 °C
Protocol: as §1, §2, §3, §4, §5, §6, §7, §8, §9, §10, §11, §12, §13, §14, §15, §16

[11] = system: A. baumannii ATCC 19606; details: MIC A. baumannii ATCC 19606 (µg/mL)
[12] = system: HepG2 cells; assay: Cytotoxicity assay (resazurin assay); assay type: cell-based, human; details: 4000 cells/well, 24 h incubation with compound, fluorescence 560/590
Protocol: Cytotoxicity to HEK293 and HepG2 cells was determined using the resazurin assay.[67],[68] […] Compounds were then added into each well. After 24 h incubation, 5 μM resazurin was added per well and incubated at 37 °C for 2 h. Fluorescence intensity was then read using a Polarstar Omega with excitation/emission 560/590. The data were then analyzed using GraphPad Prism 6 software. CC50 values were determined using GraphPad Prism 6 software (Inc. La Jolla, CA).

[13] = system: S. aureus ATCC 25923, MSSA; assay: microbe, parasite or virus in culture; assay type: cell-based, Staphylococcus aureus
Protocol: as §1, §2, §3, §4, §5, §6, §7, §8, §9, §10, §11, §12, §13, §14, §15, §16

[14] = system: A. baumannii CI Ptyela 100734512:2, PmxR; assay: microbe, parasite or virus in culture; assay type: cell-based, Acinetobacter baumannii; details: carbapenem & polymyxin resistant clinical isolate; MHB, 5 × 10^5 CFU/mL, 18 h at 37 °C
Protocol: as §1, §2, §3, §4, §5, §6, §7, §8, §9, §10, §11, §12, §13, §14, §15, §16

[15] = system: primary human renal proximal tubule epithelial (hPT) cells; assay: Nephrotoxicity assay, LDH release; assay type: cell-based; details: primary human kidney cells
Excerpt: (§17) Primary human renal proximal tubule epithelial (hPT) cells were isolated and used for in vitro prediction of drug-induced nephrotoxicity[63],[64],[69] by measuring the release of metabolism enzymes, LDH and GGT, as previously described.[70]

[16] = system: primary human renal proximal tubule epithelial (hPT) cells; assay: Nephrotoxicity assay, GGT release; assay type: cell-based; details: primary human kidney cells
Excerpt: as §17

Row | Structure (SMILES) | MIC [1] [µg/mL] | MIC [2] [µg/mL] | MIC [3] [µg/mL] | MIC [4] [µg/mL] | MIC [5] [µg/mL] | MIC [6] [µg/mL] | MIC [7] [µg/mL] | CC50 [8] [µM] | MIC K. pneumoniae CI Koprana 100650661:1, PmxR [9] [µg/mL] | MIC K. pneumoniae CI 138-16357-20362, PmxR [10] [µg/mL] | MIC [11] [µg/mL] | HepG2 - CC50 [12] [µM] | MIC ([13]; Staphylococcus aureus, 18 h, read-out: MIC S. aureus ATCC 25923, MSSA) [µg/mL] | MIC A. baumannii CI Ptyela 100734512:2, PmxR [14] [µg/mL] | MIC S. aureus ATCC 25923, MSSA ([13]; ATCC 25923, 18 h) [µg/mL] | LDH release CC50 [15] [µg/mL] | GGT release CC50 [16] [µg/mL]
1 | CCCCCCCC(=O)N[C@@H](CCN)C(=O)N[C@H](C(=O)N[C@@H](CCN)C(=O)N[C@H]1CCNC(=O)[C@H]([C@@H](C)O)NC(=O)[C@H](CCCNC(=N)N)NC(=O)[C@H](CCN)NC(=O)[C@H](CC(C)C)NC(=O)[C@@H](Cc2ccccc2)NC(=O)[C@H](CCN)NC1=O)[C@@H](C)O [Compound 21] (Octanoyl-[Dab]T[Dab][Dab][Dab][dF]L[Dab]RT; lactam 4-C) | > 32 | > 32 | > 32 | > 32 | > 32 | > 32 | > 32 | > 300 | >32 | >32 | – | – | – | – | – | – | –
2 | CCCCCCCC(=O)N[C@@H](CCN)C(=O)N[C@H](C(=O)N[C@@H](CCN)C(=O)N[C@H]1CCNC(=O)[C@H]([C@@H](C)O)NC(=O)[C@H](CCN)NC(=O)[C@H](CCN)NC(=O)[C@H](CC(C)C)NC(=O)[C@@H](Cc2ccccc2)NC(=O)[C@H](CCCNC(=N)N)NC1=O)[C@@H](C)O [Compound 35] (Octanoyl-[Dab]T[Dab][Dab]R[dF]L[Dab][Dab]T; lactam 4-C) | > 32 | > 32 | > 32 | > 32 | > 32 | > 32 | > 32 | > 300 | >32 | >32 | > 32 | – | – | – | – | – | –
3 | CCCCCCCC(=O)NCC(=O)N[C@@H](CCN)C(=O)N[C@H](C(=O)N[C@H]1CCNC(=O)[C@H]([C@@H](C)O)NC(=O)[C@H](CCN)NC(=O)[C@H](CCN)NC(=O)[C@H](CC(C)C)NC(=O)[C@@H](Cc2ccccc2)NC(=O)[C@H](CCN)NC1=O)[C@@H](C)O [Compound 41] (Octanoyl-G[Dab]T[Dab][Dab][dF]L[Dab][Dab]T; lactam 4-C) | – | > 32 | > 32 | > 32 | > 32 | > 32 | > 32 | > 300 | >32 | >32 | > 32 | – | – | – | – | – | –
4 | CCCCCCCC(=O)N[C@@H](CCN)C(=O)N[C@H](C(=O)N[C@H](CO)C(=O)N[C@H]1CCNC(=O)[C@H]([C@@H](C)O)NC(=O)[C@H](CCN)NC(=O)[C@H](CCN)NC(=O)[C@H](CC(C)C)NC(=O)[C@@H](Cc2ccccc2)NC(=O)[C@H](CCN)NC1=O)[C@@H](C)O [Compound 37] (Octanoyl-[Dab]T[dS][Dab][Dab][dF]L[Dab][Dab]T; lactam 4-C) | – | > 32 | > 32 | > 32 | > 32 | > 32 | > 32 | > 300 | >32 | >32 | – | – | – | – | – | – | –
5 | CN[C@@H](CC(C)C)C(=O)N[C@H]1C(=O)N[C@@H](CC(N)=O)C(=O)N[C@H]2C(=O)N[C@H]3C(=O)N[C@H](C(=O)N[C@@H](C(=O)O)c4cc(O)cc(O)c4-c4cc3ccc4O)[C@H](O)c3ccc(c(Cl)c3)Oc3cc2cc(c3O[C@H]2O[C@@H](CO)[C@H](O)[C@@H](O)[C@@H]2O[C@@H]2C[C@@](C)(N)[C@@H](O)[C@@H](C)O2)Oc2ccc(cc2Cl)[C@H]1O [Vancomycin, reference compound] | – | – | – | – | – | – | – | – | – | – | – | >300 | 2 (≈ 1.38 µM) | – | – | – | –
6 | CCCCCCCC(=O)N[C@@H](CCN)C(=O)N[C@H](C(=O)N[C@@H](CCN)C(=O)N[C@H]1CCNC(=O)[C@H]([C@@H](C)O)NC(=O)[C@H](Cc2ccc(N)cc2)NC(=O)[C@H](CCN)NC(=O)[C@H](CC(C)C)NC(=O)[C@@H](Cc2ccccc2)NC(=O)[C@H](CCN)NC1=O)[C@@H](C)O [Compound 20] (Octanoyl-[Dab]T[Dab][Dab][Dab][dF]L[Dab][Phe(4-NH2)]T; lactam 4-C) | > 32 | > 32 | > 32 | > 32 | > 32 | > 32 | > 32 | > 300 | >32 | >32 | > 32 | – | – | – | – | – | –
7 | CCCCCCCC(=O)N[C@@H](CCN)C(=O)N[C@H](C(=O)N[C@H](CCN)C(=O)N[C@H]1CCNC(=O)[C@H]([C@@H](C)O)NC(=O)[C@H](CCN)NC(=O)[C@H](CCN)NC(=O)[C@H](CC(C)C)NC(=O)[C@@H](Cc2ccccc2)NC(=O)[C@H](CCN)NC1=O)[C@@H](C)O [Compound 36] (Octanoyl-[Dab]T[dDab][Dab][Dab][dF]L[Dab][Dab]T; lactam 4-C) | – | – | > 32 | > 32 | > 32 | > 32 | > 32 | > 300 | >32 | >32 | – | >300 | – | >32 | >32 | – | –
8 | CC(C)C[C@@H]1NC(=O)[C@@H](Cc2ccccc2)NC(=O)[C@H](CCN)NC(=O)[C@@H](NC(=O)[C@H](CCN)NC(=O)[C@@H](NC(=O)[C@H](CCN)NC(=O)Nc2ccc(-c3ccccc3)cc2)[C@@H](C)O)CCNC(=O)[C@H]([C@@H](C)O)NC(=O)[C@H](CCN)NC(=O)[C@H](CCN)NC1=O [Compound 15] ({X1-CO}-[Dab]T[Dab][Dab][Dab][dF]L[Dab][Dab]T; lactam 4-C) | – | – | – | – | > 32 | – | – | 316 | – | >32 | – | – | – | – | – | >128 | >128
